In paper PMC7497641, “Neurotropic activity and safety of methylene-cycloalkylacetate (MCA) derivative 3-(3-allyl-2-methylenecyclohexyl) propanoic acid” (ACS Chemical Neuroscience, 2020):

Key:
[1] = target: Cholecystokinin Receptor A (CCKAR) (Homo sapiens, UniProt P32238); assay: SAFETYscan GPCR Calcium Flux; type: cell-based; settings: read-out: RC50 (the source's name)
[2] = target: 5-Hydroxy tryptamine (Serotonin) Receptor 2B (HTR2B) (Homo sapiens, UniProt P41595); assay: SAFETYscan GPCR Calcium Flux; type: cell-based
Sequence of 5-Hydroxy tryptamine (Serotonin) Receptor 2B (HTR2B) (P41595 whole entry): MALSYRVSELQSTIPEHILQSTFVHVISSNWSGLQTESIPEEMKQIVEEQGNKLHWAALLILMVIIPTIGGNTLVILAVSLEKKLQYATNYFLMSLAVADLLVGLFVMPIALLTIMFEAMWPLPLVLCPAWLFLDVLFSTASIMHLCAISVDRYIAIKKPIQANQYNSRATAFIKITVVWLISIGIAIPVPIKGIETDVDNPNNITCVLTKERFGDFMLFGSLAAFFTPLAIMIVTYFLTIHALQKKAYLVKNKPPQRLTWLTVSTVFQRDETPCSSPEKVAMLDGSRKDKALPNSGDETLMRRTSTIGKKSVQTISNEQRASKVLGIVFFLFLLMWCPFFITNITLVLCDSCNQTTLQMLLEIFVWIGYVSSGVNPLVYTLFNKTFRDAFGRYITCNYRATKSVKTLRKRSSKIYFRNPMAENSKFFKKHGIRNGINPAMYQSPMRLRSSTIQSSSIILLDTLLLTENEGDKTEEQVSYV

[3] = target: T1, Insulin Receptor (tyrosine kinase) (INSR) (Homo sapiens, UniProt P06213); assay: SAFETYscan KINOMEscan binding assay; settings: Inhibitor
T1 construct: host or cells: E. coli BL21-derived host (T7 phage) or HEK-293
T1 sequence (P06213 28-1382): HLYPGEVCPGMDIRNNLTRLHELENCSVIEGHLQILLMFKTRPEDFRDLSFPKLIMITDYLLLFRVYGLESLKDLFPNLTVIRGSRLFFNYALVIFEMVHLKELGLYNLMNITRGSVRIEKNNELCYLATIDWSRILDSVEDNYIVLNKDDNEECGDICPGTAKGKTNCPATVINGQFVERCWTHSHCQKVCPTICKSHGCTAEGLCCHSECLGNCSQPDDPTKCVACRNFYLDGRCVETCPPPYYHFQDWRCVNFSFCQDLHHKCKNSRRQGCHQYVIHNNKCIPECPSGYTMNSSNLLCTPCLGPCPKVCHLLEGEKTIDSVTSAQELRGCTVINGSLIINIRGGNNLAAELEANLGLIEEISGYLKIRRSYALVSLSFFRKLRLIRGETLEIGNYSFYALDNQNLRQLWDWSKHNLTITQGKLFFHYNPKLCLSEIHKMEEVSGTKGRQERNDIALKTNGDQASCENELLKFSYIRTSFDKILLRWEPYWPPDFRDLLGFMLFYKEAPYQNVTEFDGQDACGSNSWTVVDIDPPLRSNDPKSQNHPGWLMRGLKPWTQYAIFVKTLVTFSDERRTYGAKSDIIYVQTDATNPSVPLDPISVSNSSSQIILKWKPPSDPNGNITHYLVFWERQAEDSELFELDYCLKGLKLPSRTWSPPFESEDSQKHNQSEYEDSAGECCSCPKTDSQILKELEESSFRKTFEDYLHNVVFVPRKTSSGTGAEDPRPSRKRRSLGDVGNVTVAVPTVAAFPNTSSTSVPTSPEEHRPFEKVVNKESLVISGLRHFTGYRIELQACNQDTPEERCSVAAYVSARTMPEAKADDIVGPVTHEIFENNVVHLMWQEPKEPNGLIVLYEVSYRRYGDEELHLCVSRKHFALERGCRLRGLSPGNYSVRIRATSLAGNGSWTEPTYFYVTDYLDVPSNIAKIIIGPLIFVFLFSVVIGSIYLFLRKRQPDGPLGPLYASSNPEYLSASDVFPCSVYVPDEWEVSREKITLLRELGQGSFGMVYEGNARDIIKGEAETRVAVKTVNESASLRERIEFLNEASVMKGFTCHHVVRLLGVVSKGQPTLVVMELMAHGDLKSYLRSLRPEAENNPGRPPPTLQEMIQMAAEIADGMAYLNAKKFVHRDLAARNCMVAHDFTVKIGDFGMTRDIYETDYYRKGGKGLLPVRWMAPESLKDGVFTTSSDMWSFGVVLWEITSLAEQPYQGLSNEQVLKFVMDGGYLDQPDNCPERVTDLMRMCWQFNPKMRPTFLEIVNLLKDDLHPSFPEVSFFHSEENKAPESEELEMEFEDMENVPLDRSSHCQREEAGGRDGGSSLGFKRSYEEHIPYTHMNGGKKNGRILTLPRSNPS

[4] = target: T2, Rho Associated Coiled-Coil Containing Protein Kinase 1 (serine-threonine kinase) (ROCK1) (Homo sapiens, UniProt Q13464); assay: SAFETYscan KINOMEscan binding assay; settings: Inhibitor
T2 construct: host or cells: E. coli BL21-derived host (T7 phage) or HEK-293
T2 sequence (Q13464 whole entry): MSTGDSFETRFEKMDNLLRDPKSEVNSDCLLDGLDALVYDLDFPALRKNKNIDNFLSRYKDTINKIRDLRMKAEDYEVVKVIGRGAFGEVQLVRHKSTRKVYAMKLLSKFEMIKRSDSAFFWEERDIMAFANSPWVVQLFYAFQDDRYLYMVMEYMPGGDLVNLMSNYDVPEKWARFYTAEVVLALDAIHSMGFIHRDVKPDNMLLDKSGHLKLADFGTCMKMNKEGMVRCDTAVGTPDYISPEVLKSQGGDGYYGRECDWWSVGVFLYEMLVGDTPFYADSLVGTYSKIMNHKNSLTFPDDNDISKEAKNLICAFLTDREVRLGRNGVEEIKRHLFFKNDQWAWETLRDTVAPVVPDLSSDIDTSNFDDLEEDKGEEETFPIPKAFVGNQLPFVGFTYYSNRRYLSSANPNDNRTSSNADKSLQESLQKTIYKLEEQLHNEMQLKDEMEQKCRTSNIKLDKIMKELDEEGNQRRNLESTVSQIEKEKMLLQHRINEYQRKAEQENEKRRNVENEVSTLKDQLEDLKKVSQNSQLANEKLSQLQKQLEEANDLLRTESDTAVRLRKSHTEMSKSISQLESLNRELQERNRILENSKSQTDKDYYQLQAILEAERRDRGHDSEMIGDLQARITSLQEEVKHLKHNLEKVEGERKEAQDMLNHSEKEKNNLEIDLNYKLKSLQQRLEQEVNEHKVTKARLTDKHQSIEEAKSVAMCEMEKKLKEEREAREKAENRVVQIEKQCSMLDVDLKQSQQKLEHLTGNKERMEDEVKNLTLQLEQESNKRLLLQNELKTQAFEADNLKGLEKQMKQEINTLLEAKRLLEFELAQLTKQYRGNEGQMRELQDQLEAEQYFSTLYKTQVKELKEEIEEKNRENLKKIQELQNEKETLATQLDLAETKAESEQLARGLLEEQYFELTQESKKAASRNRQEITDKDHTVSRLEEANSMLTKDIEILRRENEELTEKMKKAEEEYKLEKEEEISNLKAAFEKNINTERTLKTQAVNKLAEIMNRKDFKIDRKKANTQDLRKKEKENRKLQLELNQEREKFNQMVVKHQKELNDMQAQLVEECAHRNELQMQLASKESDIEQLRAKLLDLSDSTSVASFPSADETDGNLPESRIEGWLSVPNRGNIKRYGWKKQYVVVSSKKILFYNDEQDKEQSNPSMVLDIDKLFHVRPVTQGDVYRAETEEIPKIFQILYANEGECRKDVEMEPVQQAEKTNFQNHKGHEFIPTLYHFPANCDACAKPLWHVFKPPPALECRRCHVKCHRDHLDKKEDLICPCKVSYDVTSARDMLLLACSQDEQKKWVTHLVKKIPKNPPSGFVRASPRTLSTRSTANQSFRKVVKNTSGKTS

[5] = target: T3, cAMP-specific 3′,5′-cyclic phospho-diesterase 4D2 (PDE4D2) (Homo sapiens, UniProt Q08499); assay: SAFETYscan Enzymatic assay; type: biochemical; settings: Inhibitor
T3 construct: purchased Signal Chem
T3 sequence (Q08499 303-809): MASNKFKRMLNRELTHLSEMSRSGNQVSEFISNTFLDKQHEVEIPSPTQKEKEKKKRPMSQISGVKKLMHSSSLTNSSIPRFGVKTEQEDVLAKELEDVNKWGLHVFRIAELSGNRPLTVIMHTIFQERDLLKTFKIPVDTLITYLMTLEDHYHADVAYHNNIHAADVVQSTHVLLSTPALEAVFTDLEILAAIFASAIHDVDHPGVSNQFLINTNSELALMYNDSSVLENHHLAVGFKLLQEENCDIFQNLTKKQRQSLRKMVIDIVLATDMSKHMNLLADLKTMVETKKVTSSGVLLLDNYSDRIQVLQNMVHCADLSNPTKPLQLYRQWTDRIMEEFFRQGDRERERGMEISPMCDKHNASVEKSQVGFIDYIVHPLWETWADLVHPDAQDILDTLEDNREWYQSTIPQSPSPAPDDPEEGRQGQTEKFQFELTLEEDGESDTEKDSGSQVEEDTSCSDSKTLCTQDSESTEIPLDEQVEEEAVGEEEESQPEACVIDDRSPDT

[6] = tested on: PC12 dopaminergic cell cultures; assay: PC12 neurotropic (neurite outgrowth) assay; type: cell-based, rat
CK1 = target: T4, CK1 (Homo sapiens, UniProt P48730); assay: PhosphoSens CSox based kinase assay; type: biochemical; settings: 5 μM HU-MCA-13
T4 construct: CK1δ, amino acids 1 -294, Carna; purchased Carna 03-103
T4 sequence (P48730 1-294): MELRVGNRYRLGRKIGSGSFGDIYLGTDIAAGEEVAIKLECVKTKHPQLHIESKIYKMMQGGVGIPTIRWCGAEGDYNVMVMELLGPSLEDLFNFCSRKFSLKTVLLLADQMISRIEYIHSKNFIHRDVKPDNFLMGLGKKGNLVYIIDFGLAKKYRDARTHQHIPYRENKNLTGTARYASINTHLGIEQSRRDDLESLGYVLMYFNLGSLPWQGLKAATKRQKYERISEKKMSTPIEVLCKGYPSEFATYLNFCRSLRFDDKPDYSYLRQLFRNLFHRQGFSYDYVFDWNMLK
Text: (§1) The initial focus was to measure the modulatory activity in vitro of MCA-13 on protein kinases which were reported to be involved in induction of neurite outgrowth.[18],[43] To do this, we took advantage of a powerful method to measure the activity of recombinant protein kinases using a homogeneous and continuous (kinetic) format, where the level of chelation-enhanced fluorescence (CHEF) is directly proportional to the amount of phosphorylated, real-time sensors consisting of sulfonamido-oxine (Sox) chromophore linked to a peptide or protein substrates of selective kinases.[44] This assay is ideal for elucidating drug mechanism of action and is increasingly being applied earlier in the drug development workflow to address off target effects and/or the challenges and opportunities for next generation protein kinase inhibitors.[45] Since neurotrophins induce neurite outgrowth by activating the different tropomyosin kinase receptors (Trk), and small molecules agonists of Trk receptors can selectively activate Trks,[46] we first investigated the ability of HU-MCA-13 to modulate TRKA, TRKB and TRKC phosphorylation activities (Supporting Information, Figure S3-2). […] The TRKs constructs used in the assay contained only the intracellular kinase domain (amino acids 442–786) and therefore presently we cannot exclude that HU-MCA-13 may interact with the TRKs extracellular domain thereby inducing the conformational change required for the kinase domain activation. […] Moreover, no effects of HU-MCA-13were found on other kinases (ASK1, ERK2, JNK3, p38α, CDK5, KDR-VEGFR, AKT1, GSK3β, PDGFRβ, PKACα, PKC, CK1, IKKβ) which stimulate neurite outgrowth. Also, no effects were observed of HU-MCA-13 on kinases (EGFR, IGF1R, FGFR 1 and 2, CAMK2α,) which inhibit neurite outgrowth or calcineurin phosphatase which dephosphorylates the neurite outgrowth stimulatory protein, cofilin.[47]
(§2) MCA-13 safety b y in vitro eval uati on usi ng Phos pho Sens®C Soxb ased kinase […]
(§3) Method: Kinase Activity Measurements
(§4) Kinase activity was measured continuously using the PhosphoSens®technology (AssayQuant Technologies Inc., Marlborough, MA) according to the manufacturers’ recommendations (http://www.assayquant.com/) . This one-step homogeneous assay use s chelation-enh anced fluorescence via optimized substrate sensors unique for each kinase, containing the unnatural fluorogenic amino-acid Sox.
(§5) The following kinases which, upon stimulation or inhibition with small molecule modulators, induced neurite outgrowth, were obtained from different companies and were used in this study at the following concentrations: 2.
(§6) 25 µL final reaction volume including : 2.5 µl Sox-based substrate (10 x), 17.5 µl reaction mix with AT P, 5.0 µL Kinase [5x in EDB (Enzyme Dilution Buffer : 20 mM TRIS, pH 8.0, 0.01% Brij -35, 0.1 mM EGTA, 5% Glycerol, 1 mM DTT, 1 mg/mL Bovine Serum Albumin]. 5-45 min preincubation (all except EDB/kinase) at 30 °C of substrate in reaction mix and ATP ensuring that the progress kinetic curve for the background fluorescence w as flat. Reaction was run at 30 °C for […]
(§7) Final Reaction Conditions.
(§8) Protein kinase activity was determined in 54 mM HEPES, pH 7.5 1 mM ATP 1.2 mM DTT (none in ASK1) 0.012% Brij-35 1% glycerol 0.2 mg/ml BSA 0.52 mM EGTA (none in assays of CAMK2α, PKCε, PKCι, Calcineurin A/B) 140 µM phosphatidylserine/3.8 µM diacylglycerol (PKCε, PKCι only) 5 ng/µl calmodulin/0.4 mM CaCl2 (CAMK2α, Calcineurin A/B only) 10 mM […]
(§9) IKKβ, AKT1, GSK3β, PKCε, PKCι, PKACα, KDR, CK1δ, EGFR, ASK1, IGF1R, CAMK2α, DLK, FGFR2, FGFR1) in the presence or absence of 5 µ M H U-MCA-13 test compound. All components e xcept enzyme were equilibrated to 30 °C prior to setting up reactions run in Corning, 384-well, white flat round bottom polystyrene NBS microplates (Cat. #3824) after sealing using optically-clear adhesive film [TopSealA -Plus plate seal, PerkinElmer (Cat. #6050185)], applied with a roller to eliminate evaporation and resulting drift. Europium was added to a final […]

FGFR 1 = target: T5, FGFR 1 (Homo sapiens, UniProt P11362); assay: PhosphoSens CSox based kinase assay; type: biochemical; settings: 5 μM HU-MCA-13
T5 construct: 396-820, Carna (cat. & lot #: 08); purchased Carna 08-133
Text: as §1, §2, §3, §4, §5, §6, §7, §8, §9

KDR-VEGFR = target: T6, KDR-VEGFR (Homo sapiens, UniProt P35968); assay: PhosphoSens CSox based kinase assay; type: biochemical; settings: 5 μM HU-MCA-13
T6 construct: KDR, amino acids 790 -1356, Carna (cat. & lot #: 08 -191,; purchased Carna 08-191
Text: as §1, §2, §3, §4, §5, §6, §7, §8, §9

TRK B = target: T7, TRK B (Homo sapiens, UniProt Q16620); assay: PhosphoSens CSox based kinase assay; type: biochemical; settings: 5 μM HU-MCA-13; intracellular kinase domain
T7 construct: TRKB, amino acids 456 -822, BPS Bio; purchased BPS Bio 40281 (lot 130826)
T7 sequence (Q16620 456-822): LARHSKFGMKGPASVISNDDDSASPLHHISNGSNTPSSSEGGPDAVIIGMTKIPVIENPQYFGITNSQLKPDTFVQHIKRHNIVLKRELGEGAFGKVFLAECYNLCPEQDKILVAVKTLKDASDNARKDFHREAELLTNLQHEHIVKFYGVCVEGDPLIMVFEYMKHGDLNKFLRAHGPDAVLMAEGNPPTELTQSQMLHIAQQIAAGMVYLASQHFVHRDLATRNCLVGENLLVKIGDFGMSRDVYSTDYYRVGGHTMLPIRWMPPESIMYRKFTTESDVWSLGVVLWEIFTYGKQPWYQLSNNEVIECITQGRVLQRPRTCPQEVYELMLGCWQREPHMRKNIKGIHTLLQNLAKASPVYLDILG
Text: as §1, §2, §3, §4, §5, §6, §7, §8, §9

calcineurin phosphatase = assay: PhosphoSens CSox based phosphatase assay; type: biochemical; settings: 5 μM HU-MCA-13
Text: The initial focus was to measure the modulatory activity in vitro of MCA-13 on protein kinases which were reported to be involved in induction of neurite outgrowth.[18],[43] To do this, we took advantage of a powerful method to measure the activity of recombinant protein kinases using a homogeneous and continuous (kinetic) format, where the level of chelation-enhanced fluorescence (CHEF) is directly proportional to the amount of phosphorylated, real-time sensors consisting of sulfonamido-oxine (Sox) chromophore linked to a peptide or protein substrates of selective kinases.[44] […]
as §4, with “Sox. […]” for “Sox.”
as §8

[7] = target: Voltage-gated L-type calcium channel (CAV1.2) (Homo sapiens, UniProt Q13936); assay: cell-based
[8] = 10 μM, read-out: MCA-13 Max. Responce
[9] = read-out: RC50 (the source's name)

Sequence of Cholecystokinin Receptor A (CCKAR) (P32238 whole entry): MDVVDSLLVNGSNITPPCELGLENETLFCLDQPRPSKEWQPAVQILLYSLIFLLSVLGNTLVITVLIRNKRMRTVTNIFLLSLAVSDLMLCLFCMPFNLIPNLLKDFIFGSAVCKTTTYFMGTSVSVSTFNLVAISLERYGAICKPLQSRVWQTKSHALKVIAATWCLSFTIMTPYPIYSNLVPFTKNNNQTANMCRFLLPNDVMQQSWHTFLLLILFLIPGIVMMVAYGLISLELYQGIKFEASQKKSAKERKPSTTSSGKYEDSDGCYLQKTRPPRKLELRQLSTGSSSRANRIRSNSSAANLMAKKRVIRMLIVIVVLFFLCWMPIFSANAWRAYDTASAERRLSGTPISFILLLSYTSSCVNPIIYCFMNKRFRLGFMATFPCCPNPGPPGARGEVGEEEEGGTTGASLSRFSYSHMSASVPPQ

C=CCC1CCCC(CCC(=O)O)C1=C (centres unmarked) [HU-MCA-13, 3-(3-allyl-2-methylenecyclohexyl)propanoic acid]
EC50 ([1]; Agonist): > 10 µM | IC50 ([1]; Antagonist): > 10 µM | EC50 [2]: > 10 µM | IC50 [2]: > 10 µM | inhibition at 10 µM [3, 8]: 3.22% | IC50 [3, 9]: > 10 µM | inhibition at 10 µM [4, 8]: 21.6% | IC50 [4, 9]: > 10 µM | inhibition at 10 µM [5, 8]: 0% | IC50 [5, 9]: > 10 µM | neurotropic effect in the presence of Trk A inhibitor K252a ([6]; 250 nM K252a, 10 μM HU-MCA-13): did not abolished | β tubulin III expression in cell bodies and neurite outgrowths (immunostaining) ([6]; 5 μM, 7 days): expressed β tubulin III | neurite outgrowth ([6]; HU-MCA-13 1 μM): 10–15% | neurite outgrowth, Df ([6]; HU-MCA-13 1 μM): 0.04 | effect on kinase activity (CK1): no effects | effect on kinase activity (FGFR 1): no effects | effect on kinase activity (KDR-VEGFR): no effects | modulation of phosphorylation activity (TRK B): no effects | effect on phosphatase activity (calcineurin phosphatase): no effects | IC50 [7]: > 10 µM
